This is an account of results in ChEMBL document CHEMBL1201862, “PubChem BioAssay data set” (2004).

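Assay format: 96-well plates, 48-hour exposure. GI50 = concentration required for 50% inhibition of growth.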 Calls of active or inactive are those of the source. No stated cut-off is given here; in the data, active = GI50 up to about 1.1 µM and inactive = higher.

Holding throughout (experiment): DTP human tumour cell line panel, 48 h
Assay [1] has as its system HOP-92.
Assay [2] deals with M14.
In assay [3] the test system is MDA-N.
Assay [4] relates to SF-295.
The subject of assay [5] is SN12C.
Assay [6] concerns NCI-H522.
Assay [7] concerns SNB-75.
The test system of assay [8] is CAKI-1.
Assay [9] concerns 786-0.
In assay [10] the test system is LOX IMVI.
The test system of assay [11] is HCC 2998.
Assay [12] has as its system MDA-MB-435.
The subject of assay [13] is COLO 205.
Assay [14] concerns RPMI-8226.
Assay [15] has as its system EKVX.
For assay [16], the system named is SK-OV-3.
For assay [17], the system named is SK-MEL-28.
Assay [18] relates to ACHN.
Assay [19] relates to A549.
The test system of assay [20] is RXF 393.

One may read the GI50 as the concentration giving 50% growth inhibition. In the case of `CCOC(=O)C1=C(C)N(C)C23OC4(C(=O)OC)CC2c2ccccc2C1N3C4=O` (centres undefined), the GI50 in [1] was > 100 µM (inactive); in assay [2], 73.8 µM (inactive); in assay [3], 14.2 µM (inactive); in assay [4], 39.3 µM (inactive); in assay [5] it was 79.3 µM (inactive); in assay [6], 37.4 µM (inactive). Moreover, the GI50 in assay [7] was > 100 µM (inactive); in [8], > 100 µM (inactive); in assay [9] it was > 100 µM (inactive); in assay [10] it was > 100 µM (inactive); in assay [11] it was 12.4 µM (inactive); in assay [12], 30.8 µM (inactive). For the same compound, the GI50 in [13] is > 100 µM (inactive); in assay [14], 44.8 µM (inactive); in assay [15], > 100 µM (inactive); in assay [16] it was > 100 µM (inactive); in assay [17], > 100 µM (inactive); in assay [18] it was > 100 µM (inactive). Further, the GI50 in [19] is > 100 µM (inactive).

Turning to `Cc1cc2nnn(C3CCCCO3)c2cc1C` (centres undefined), the GI50 in assay [2], in [20], in assay [3], in assay [4], in assay [5] and in assay [6] was > 100 µM (inactive) throughout. Further, the GI50 was 88.1 µM (inactive) in assay [7]; > 100 µM (inactive) in [8]; > 100 µM (inactive) in [9]; > 100 µM (inactive) in [11]; > 100 µM (inactive) in [12]; > 100 µM (inactive) in [13]. The GI50 in assay [15], in assay [16], in [18] and in [19] was > 100 µM (inactive) throughout.

Take `CSc1nc2c(N)ncnc2n1C`: the GI50 in assay [2], in assay [20], in assay [3], in assay [4], in [5] and in assay [6] was > 100 µM (inactive) throughout. The GI50 in assay [7] is 82.8 µM (inactive); in assay [8], > 100 µM (inactive); in assay [9], > 100 µM (inactive); in [10], > 100 µM (inactive); in assay [11], > 100 µM (inactive); in assay [12] it was > 100 µM (inactive). Besides, the GI50 in assay [13], in assay [14], in assay [15], in assay [16], in assay [17] and in assay [18] was > 100 µM (inactive) in each case. Also, the GI50 in assay [19] is > 100 µM (inactive).

For the compound `CC(=O)C1=C(C)N(c2ccc(C)cc2)C2(O)C=CC(=O)C3C(=O)N(c4ccccc4)C(=O)C132` (centres undefined), the GI50 in assay [1] was 16.8 µM (inactive); in assay [2] it was 24.4 µM (inactive); in [20], 20.3 µM (inactive); in assay [4] it was 14.4 µM (inactive); in [5], 15.5 µM (inactive); in [6] it was 7.89 µM (inactive). Further, the GI50 is 24.4 µM (inactive) in assay [7]; 18.6 µM (inactive) in assay [8]; 30.6 µM (inactive) in assay [9]; 3.08 µM (inactive) in assay [10]; 22.5 µM (inactive) in [11]; 36.3 µM (inactive) in assay [12]. The GI50 is 23.3 µM (inactive) in assay [13]; 3.85 µM (inactive) in assay [14]; 32.6 µM (inactive) in assay [15]; 19.5 µM (inactive) in assay [17]; 15.9 µM (inactive) in assay [18]; 38.3 µM (inactive) in assay [19].

Turning to `CN(C)/N=N/c1nc2c(c(=O)n(C)c(=O)n2C)n1C`, the GI50 in assay [2], in assay [20], in assay [3], in assay [4], in assay [5] and in assay [6] was > 100 µM (inactive) each time. Moreover, the GI50 in assay [7], in [8], in assay [9], in assay [10], in assay [11] and in [12] was > 100 µM (inactive) throughout. Also, the GI50 in assay [13], in assay [14], in assay [15], in [16], in [17] and in assay [18] was > 100 µM (inactive) in each case. Moreover, the GI50 in assay [19] is > 100 µM (inactive).

For the compound `CCOC(=O)NC(=S)NC(C)c1ccccc1` (centres undefined), the GI50 in [2], in assay [20], in assay [3], in assay [4], in assay [6] and in assay [7] was > 100 µM (inactive) each time. Besides, the GI50 in assay [8] was > 100 µM (inactive); in assay [9] it was > 100 µM (inactive); in assay [11] it was > 100 µM (inactive); in assay [12], > 100 µM (inactive); in assay [13], > 100 µM (inactive); in [14], 27.2 µM (inactive). In addition, the GI50 in assay [15], in [16], in [17], in assay [18] and in [19] was > 100 µM (inactive) throughout.

Take `CN(Cc1cnc2nc(N)nc(N)c2n1)c1ccc(C(=O)N[C@@H](CCC(=O)O)C(=O)O)cc1` [METHOTREXATE]: the GI50 in [1] was 7.21 µM (inactive); in assay [2], 0.0334 µM (active); in assay [20], 20.7 µM (inactive); in assay [4] it was 0.0383 µM (active); in assay [5] it was 0.0321 µM (active); in assay [6], 0.25 µM (active). Besides, the GI50 in [7] was 21.7 µM (inactive); in assay [8] it was 0.0614 µM (active); in assay [9], 0.034 µM (active); in assay [10] it was 0.0274 µM (active); in assay [11] it was 0.119 µM (active); in assay [12], 0.0341 µM (active). The GI50 in assay [13] was 1.19 µM (inactive); in assay [14] it was 0.0661 µM (active); in assay [15], 18.4 µM (inactive); in [16], 20.7 µM (inactive); in [17], 4.86 µM (inactive); in [18] it was 0.0385 µM (active). The concentration for 50% growth inhibition (GI50) in assay [19] was 0.0345 µM (active).

In the case of `NC(=O)N=C(N(Cc1ccccc1)Cc1ccccc1)N(Cc1ccccc1)Cc1ccccc1`, the GI50 was 4.3 µM (inactive) in assay [1]; > 100 µM (inactive) in assay [20]; 3.91 µM (inactive) in assay [4]; 6.08 µM (inactive) in [5]; 6.43 µM (inactive) in [6]; 13.3 µM (inactive) in assay [7]. Also, the GI50 was > 100 µM (inactive) in assay [8]; 14.9 µM (inactive) in assay [9]; 5.89 µM (inactive) in [10]; 5.22 µM (inactive) in [11]; 3.72 µM (inactive) in assay [12]; 8.02 µM (inactive) in assay [14]. The GI50 in assay [15] is > 100 µM (inactive); in assay [16], > 58.7 µM (inactive); in [17] it was > 100 µM (inactive); in assay [18] it was > 24.4 µM (inactive); in assay [19], > 100 µM (inactive).

On to `COC(=O)c1c(O)ccc2c1c1c(n2Cc2ccccc2)C(=O)c2ccccc2C1`, for which the GI50 in assay [2] was 52.4 µM (inactive); in assay [20], 21.3 µM (inactive); in assay [3] it was 43.4 µM (inactive); in assay [4], 27.1 µM (inactive); in assay [5] it was 21.6 µM (inactive); in assay [7] it was 20.6 µM (inactive). Further, the GI50 was 36.5 µM (inactive) in assay [8]; 39.2 µM (inactive) in assay [9]; 26.2 µM (inactive) in assay [10]; 33 µM (inactive) in [12]; 15.4 µM (inactive) in assay [13]; 12.4 µM (inactive) in [14]. Besides, the GI50 in assay [16] was 31.9 µM (inactive); in [17], 44.6 µM (inactive); in [19] it was 30.8 µM (inactive).

Take `N[C@@H](CCC(=O)NCP(=O)(O)O)C(=O)O`: the GI50 in assay [3] is > 100 µM (inactive); in assay [4], > 100 µM (inactive); in assay [5], > 100 µM (inactive); in [6], 18.2 µM (inactive); in assay [9], > 100 µM (inactive); in assay [11], > 100 µM (inactive). Also, the GI50 in assay [12], in assay [13], in [14], in [15], in assay [17] and in assay [18] was > 100 µM (inactive) each time. Moreover, the GI50 in [19] is > 100 µM (inactive).

As for `O=C(Nc1ccccc1)n1[nH]c(=O)n(-c2ccccc2)c1=O`, the GI50 in assay [1], in [3], in assay [4], in assay [5], in assay [6] and in assay [7] was > 100 µM (inactive) throughout. For the same compound, the GI50 in assay [8], in [9], in assay [10], in assay [11], in assay [12] and in [13] was > 100 µM (inactive) in each case. In addition, the GI50 in assay [14], in assay [16], in [17], in [18] and in assay [19] was > 100 µM (inactive) in each case.
